Assay results from patent US20260285850A1, “SUBSTITUTED OXAZOLIDINONES AND IMIDAZOLINONES AS HERBICIDES” (FMC CORPORATION, priority 2023, published 2026).

What was measured:
Format in all cases: in vivo
[1] = system: barnyardgrass (Echinochloa crus-galli); assay: Test A preemergence soil spray, visual injury rating 0-100; details: 10 days
Outline: (§1)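 Scale 0–100 (no effect to complete control), visual, versus untreated controls, read 10 days after application. Application: preemergence directed spray onto seeded loam–sand soil, or postemergence to young plants; formulation in non-phytotoxic solvent with surfactant.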

[2] = system: blackgrass (Alopecurus myosuroides); assay: as above; details: 10 days
Outline: as §1

corn (Zea mays) [3] = assay: as above; details: 10 days
Outline: as §1

[4] = system: green foxtail (Setaria viridis); assay: as above; details: 10 days
Outline: as §1

kochia (Bassia scoparia) [5] = assay: as above; details: 10 days
Outline: as §1

[6] = system: oat, wild (wild oat, Avena fatua); assay: as above; details: 10 days
Outline: as §1

[7] = system: palmer (palmer amaranth, palmer pigweed, Amaranthus palmeri); assay: as above; details: 10 days
Outline: as §1

[8] = system: ragweed (common ragweed, Ambrosia artemisiifolia); assay: as above; details: 10 days
Outline: as §1

[9] = system: ryegrass, Italian (italian ryegrass, Lolium multiflorum); assay: as above; details: 10 days
Outline: as §1

soybean (Glycine max) [10] = assay: as above; details: 10 days
Outline: as §1

[11] = system: wheat (Triticum aestivum); assay: as above; details: 10 days
Outline: as §1

[12] = system: barnyardgrass (Echinochloa crus-galli); assay: Test A postemergence application, visual injury rating 0-100
Outline: as §1

[13] = system: blackgrass (Alopecurus myosuroides); assay: as above
Outline: as §1

corn (Zea mays) [14] = assay: as above
Outline: as §1

[15] = system: green foxtail (Setaria viridis); assay: as above
Outline: as §1

[16] = system: horseweed (Erigeron canadensis); assay: as above
Outline: as §1

kochia (Bassia scoparia) [17] = assay: as above
Outline: as §1

[18] = system: oat, wild (wild oat, Avena fatua); assay: as above
Outline: as §1

[19] = system: palmer (palmer amaranth, palmer pigweed, Amaranthus palmeri); assay: as above
Outline: as §1

[20] = system: ragweed (common ragweed, Ambrosia artemisiifolia); assay: as above
Outline: as §1

[21] = system: ryegrass, Italian (italian ryegrass, Lolium multiflorum); assay: as above
Outline: as §1

soybean (Glycine max) [22] = assay: as above
Outline: as §1

[23] = system: wheat (Triticum aestivum); assay: as above
Outline: as §1

[24] = system: barnyardgrass (Echinochloa crusgalli); assay: Test B flooded paddy test, visual plant response rating 0-100; details: 250 g ai/ha, Flood, applied to paddy water, evaluated after 13 days
Outline: (§2)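 Each species was raised to two leaves before flooding to a 3 cm depth and dosing the water with compound. Injury was assessed by eye after 13 days under greenhouse conditions.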

[25] = system: ducksalad (Heteranthera limosa); assay: as above; details: 250 g ai/ha, Flood, applied to paddy water, evaluated after 13 days
Outline: as §2

rice (Oryza sativa) = assay: as above; details: 250 g ai/ha, Flood, applied to paddy water, evaluated after 13 days
Outline: as §2

[26] = system: sedge, umbrella (small-flower umbrella sedge, Cyperus difformis); assay: as above; details: 250 g ai/ha, Flood, applied to paddy water, evaluated after 13 days
Outline: as §2

[27] = 62 g ai/ha, 0 = no effect, 100 = complete control
[28] = 62 g ai/ha, postemergence, 10 days, 0 = no effect, 100 = complete control
[29] = Postemergence, 16 g ai/ha, greenhouse 10 days, 0 no effect, 100 complete control

With `COC(=O)C1CC(NC(=O)C2(C)CN(c3cc(F)cc(Cl)c3)C(=O)O2)C1` (centres unmarked) [Compound 145] the “Barnyardgrass plant response rating” value ([1]; 16 g ai/ha, 0 to 100 scale) was 20, the “Barnyardgrass plant response rating (0-100)” value [1, 27] was 80 and the “Blackgrass plant response rating” value ([2]; 16 g ai/ha, 0 to 100 scale) was 0. The “Blackgrass plant response rating (0-100)” value [2, 27] was 80, the “Corn plant response rating” value (corn (Zea mays) [3]; 16 g ai/ha, 0 to 100 scale) was 10 and the “Corn plant response rating (0-100)” value (corn (Zea mays) [3]; [27]) was 80. For the same molecule, the “Foxtail, Green plant response rating” value ([4]; 16 g ai/ha, 0 to 100 scale) was 10, the “Foxtail, Green plant response rating (0-100)” value [4, 27] was 90 and the “Kochia plant response rating” value (kochia (Bassia scoparia) [5]; 16 g ai/ha, 0 to 100 scale) was 0. The “Kochia plant response rating (0-100)” value (kochia (Bassia scoparia) [5]; [27]) was 0, the “Oat, Wild plant response rating” value ([6]; 16 g ai/ha, 0 to 100 scale) was 20 and the “Oat, Wild plant response rating (0-100)” value [6, 27] was 80. The “Pigweed, Palmer plant response rating” value ([7]; 16 g ai/ha, 0 to 100 scale) was 0, the “Pigweed, Palmer plant response rating (0-100)” value [7, 27] was 0 and the “Ragweed plant response rating” value ([8]; 16 g ai/ha, 0 to 100 scale) was 0. The “Ragweed plant response rating (0-100)” value [8, 27] was 0, the “Ryegrass, Italian plant response rating” value ([9]; 16 g ai/ha, 0 to 100 scale) was 30 and the “Ryegrass, Italian plant response rating (0-100)” value [9, 27] was 100. For the same molecule, the “Soybean plant response rating” value (soybean (Glycine max) [10]; 16 g ai/ha, 0 to 100 scale) was 0, the “Soybean plant response rating (0-100)” value (soybean (Glycine max) [10]; [27]) was 50 and the “Wheat plant response rating” value ([11]; 16 g ai/ha, 0 to 100 scale) was 80. For the same molecule, the “Wheat plant response rating (0-100)” value [11, 27] was 90, the “Barnyardgrass plant response rating (0-100)” value [12, 28] was 100 and the “Barnyardgrass plant response rating (0 to 100 scale)” value [12, 29] was 100. For the same molecule, the “Blackgrass plant response rating (0-100)” value [13, 28] was 100, the “Blackgrass plant response rating (0 to 100 scale)” value [13, 29] was 90 and the “Corn plant response rating (0-100)” value (corn (Zea mays) [14]; [28]) was 100. The “Corn plant response rating (0 to 100 scale)” value (corn (Zea mays) [14]; [29]) was 100, the “Foxtail, Green plant response rating (0-100)” value [15, 28] was 90 and the “Foxtail, Green plant response rating (0 to 100 scale)” value [15, 29] was 90. The “Horseweed plant response rating (0-100)” value [16, 28] was 30, the “Horseweed plant response rating (0 to 100 scale)” value [16, 29] was 30 and the “Kochia plant response rating (0-100)” value (kochia (Bassia scoparia) [17]; [28]) was 90. For the same molecule, the “Kochia plant response rating (0 to 100 scale)” value (kochia (Bassia scoparia) [17]; [29]) was 60, the “Oat, Wild plant response rating (0-100)” value [18, 28] was 90 and the “Oat, Wild plant response rating (0 to 100 scale)” value [18, 29] was 90. The “Pigweed, Palmer plant response rating (0-100)” value [19, 28] was 70, the “Pigweed, Palmer plant response rating (0 to 100 scale)” value [19, 29] was 10 and the “Ragweed plant response rating (0-100)” value [20, 28] was 20. For the same molecule, the “Ragweed plant response rating (0 to 100 scale)” value [20, 29] was 0, the “Ryegrass, Italian plant response rating (0-100)” value [21, 28] was 90 and the “Ryegrass, Italian plant response rating (0 to 100 scale)” value [21, 29] was 70. For the same molecule, the “Soybean plant response rating (0-100)” value (soybean (Glycine max) [22]; [28]) was 80, the “Soybean plant response rating (0 to 100 scale)” value (soybean (Glycine max) [22]; [29]) was 50 and the “Wheat plant response rating (0-100)” value [23, 28] was 90. The “Wheat plant response rating (0 to 100 scale)” value [23, 29] was 90, the “Plant response rating, Barnyardgrass (0 to 100 scale, 0 is no effect and 100 is complete control)” value [24] was 60 and the “Plant response rating, Ducksalad (0 to 100 scale, 0 is no effect and 100 is complete control)” value [25] was 60. The “Plant response rating, Rice (0 to 100 scale, 0 is no effect and 100 is complete control)” value (rice (Oryza sativa)) was 40 and the “Plant response rating, Sedge, Umbrella (0 to 100 scale, 0 is no effect and 100 is complete control)” value [26] was 50.
